Columns and labels:
[1] = system: lenti-GLDC shRNA-insulted mice; experiment: Barnes maze, spatial learning and memory in lenti-GLDC shRNA-insulted mice; type: in vivo, C57/BL6 mice; details: 50 mg/kg body wt/d daily via gavage, after 10 d of treatment; for latency in reaching the target hole: FIG. 2B; for errors in reaching the target hole: FIG. 2C
Experimental: (§1) C57/BL6 mice (8-10 week old) received lentiviral GLDC shRNA (1×107 IFU/mouse in 100 μl HBSS) once via tail-vein injection. Therefore, control mice also received 100 μl HBSS via tail-vein. From 7 d after lenti-GLDC shRNA injection, mice were treated with cinnamein (50 mg/kg body wt/d) and cinnamic acid (50 mg/kg body wt/d) daily via gavage. After 10 d of treatment, spatial learning and memory was monitored by Barnes maze (A, heat map; B, latency; C, errors). Results are mean+SEM of five mice per group. *p<0.05; **p<0.01; ***p<0.001.
(§2) C57/BL6 mice (8-10 week-old) received lentiviral GLDC shRNA (1×107 IFU/mouse in 100 μl Hank's Balanced Salt Solution or HBSS) once via tail-vein injection. The group of control mice received only 100 μl HBSS via tail-vein injection. Oral administration of cinnamein occurred from 7 d after lenti-GLDC shRNA injection. Mice were treated with 50 mg/kg body wt/d of cinnamein daily via gavage. Cinnamein (Sigma) was solubilized in 100 μl 0.5% methyl cellulose before gavage. Therefore, one group of lenti-GLDC shRNA-insulted mice were also treated with 100 μl 0.5% methyl cellulose as vehicle control. For comparison, one group of lenti-GLDC shRNA-insulted mice were also treated with 50 mg/kg body wt/d of cinnamic acid daily via gavage.
Next, mice were monitored for spatial learning and memory by Barnes maze. Here, mice were trained for two consecutive days followed by examination on day three. During training, the overnight food-deprived mouse was placed in the middle of the maze in a 10 cm high cylindrical start chamber. After 10 s, the start chamber was removed to allow the mouse to move around the maze to find out the color food chips in the baited tunnel.

[2] = system: lenti-GLDC shRNA-insulted mice; experiment: Level of glycine in serum and cortex of lenti-GLDC shRNA-insulted mice (fluorometric assay kit); type: in vivo, C57/BL6 mice; details: 50 mg/kg body wt/d daily via gavage, 14 d of treatment; for level of glycine in serum: FIG. 3A; for level of glycine in cortex: FIG. 3B
Experimental: C57/BL6 mice (8-10 week old) received lentiviral GLDC shRNA (1×107 IFU/mouse in 100 μl Hank's Balanced Salt Solution or HBSS) once via tail-vein injection. Therefore, control mice also received 100 μl HBSS via tail-vein. From 7 d after lenti-GLDC shRNA injection, mice were treated with cinnamein (50 mg/kg body wt/d) and cinnamic acid (50 mg/kg body wt/d) daily via gavage. After 14 d of treatment, the level of glycine was measured in serum (A) and cortex (B) by using a fluorometric assay kit (Biovision). Each mouse sample was run in triplicate. Results are mean+SEM of five mice per group. ***p<0.001.
as §2
(§3) On 14 d of treatment, mice were sacrificed, and level of glycine was measured in serum and brain.

[3] = Observation of side effects during drug treatment; type: in vivo, C57/BL6 mice; details: 50 mg/kg body wt/d daily via gavage, during drug treatment (14 d)
Experimental: as §2, §3

[4] = system: lenti-GLDC shRNA-insulted mice; experiment: Open field test of locomotor activities in lenti-GLDC shRNA-insulted mice; type: in vivo, C57/BL6 mice; details: 50 mg/kg body wt/d daily via gavage, after 10 d of treatment, FIG. 1A-D
Experimental: as §1, with “locomotor activities were” for “spatial learning and memory was”, “open field (FIG. 1A,” for “Barnes maze (A,”, “FIG. 1B, distance traveled; FIG. 1C, velocity; FIG. 1D, center zone frequency).” for “B, latency; C, errors).”
C57/BL6 mice (8-10 week-old) received lentiviral GLDC shRNA (1×107 IFU/mouse in 100 μl Hank's Balanced Salt Solution or HBSS) once via tail-vein injection. The group of control mice received only 100 μl HBSS via tail-vein injection. Oral administration of cinnamein occurred from 7 d after lenti-GLDC shRNA injection. Mice were treated with 50 mg/kg body wt/d of cinnamein daily via gavage. Cinnamein (Sigma) was solubilized in 100 μl 0.5% methyl cellulose before gavage. […]
After 10 d of treatment with cinnamein and cinnamic acid, mice were monitored for locomotor activities by open field test. […] Each mouse was placed individually on the center of the arena and the performance was monitored by the live video tracking system.

[5] = system: B6EiC3Sn a/A-Otc^spf-ash/J (Otc^spf-ash) mice; experiment: Barnes maze, cognitive functions in OTC knockout mice (animal model of urea cycle disorders); type: in vivo; details: 50 mg/kg body weight/d orally via gavage for 15 days, FIG. 4A-C
Experimental: Eight-week old B6EiC3Sn a/A-Otc^spf-ash/J (Otc^spf-ash) mice were treated with cinnamein (50 mg/kg body weight/d) and cinnamic acid (50 mg/kg body weight/d) orally via gavage for 15 days followed by monitoring cognitive functions by Barnes maze (FIG. 4A, representative track plots summarizing the overall activity of mice on the apparatus recorded with a Noldus camera and visualized by Ethovision XT software; FIG. 4B, errors; FIG. 4C, latency). Results are mean+SEM of three mice per group. ***p<0.001.
Cognitive deficit is common in individuals with inherited urea cycle disorders (UCDs). […] See for example Qureshi et al., “Ornithine Transcarbamylase Deficiency in Mutant Mice I. Studies on the Characterization of Enzyme Defect and Suitability as Animal Model of Human Disease,” (1979) Pediat. Res. 13: pp 807-811; Hodges et al., “The spf^ash mouse: A missense mutation in the ornithine transcarbamylase gene also causes aberrant mRNA splicing,” (1989) Proc. Natl. Acad. Sci. USA 86: pp. 4142-4146. OTC knockout B6EiC3Sn a/A-Otc^spf-ash/J (Otc^spf-ash) mice were obtained from the Jackson Lab. Cinnamein was purchased from Sigma. Cinnamic acid was bought from Spectrum Chemicals.

| Structure (SMILES) | latency in reaching the target hole [1] | errors in reaching the target hole [1] | level of glycine in serum [2] | level of glycine in cortex [2] | side effects including hair loss, weight loss, diarrhea, or untoward infection [3] | locomotor activities (heat map, total distance travelled, velocity, center zone frequency) [4] | cognitive functions (Barnes maze errors and latency) [5] |
| --- | --- | --- | --- | --- | --- | --- | --- |
| O=C(C=Cc1ccccc1)OCc1ccccc1 [cinnamein, 3-phenyl-2-propenoic acid phenylmethyl ester] | significantly reduced | significantly reduced | significantly inhibited | significantly inhibited | No other side effects were observed | improved locomotor activities | recovers cognitive functions |
| O=C(O)C=Cc1ccccc1 [cinnamic acid] | significantly reduced | significantly reduced | significantly inhibited | significantly inhibited | No other side effects were observed | improved locomotor activities | recovers cognitive functions |

— US20230255910A1, “USE OF A CINNAMEIN COMPOSITION FOR THE TREATMENT OF GLYCINE ENCEPHALOPATHY AND UREA CYCLE DISORDERS” (Rush University Medical Center, priority 2020, published 2023)
